# Legend:
# [1] = tested on: Lactobacillus plantarum HG-23; test: Antibiotic sensitivity test (microdilution method, MIC); format: cell-based; settings: cultured for 48 h
# Protocol: The antibiotic resistance of HG-23 was detected by a microdilution method. a series of 2-fold dilutions were performed on antibacterial drugs to be tested (Gentamicin, Kanamycin, Tetracycline, Erythromycin, Clindamycin, Chloramphenicol, Amplicilin, with initial concentrations of 1024 ug/ml, 256 ug/ml, 64 ug/ml, 8 ug/ml, 16 ug/ml, 64 ug/ml, 16 ug/ml) for 12 times, then added into corresponding wells of 96-well plates, and then […] diluted test bacterial solutions were added into the corresponding wells. After being cultured for 48 h, the minimum inhibitory concentration (MIC) well of the antibacterial drug, namely the sensitivity of the test strain, was observed.
# Lactobacillus plantarum = tested on: Lactobacillus plantarum; set-up: unit not given here; settings: regulatory cut-off for Lactobacillus plantarum; cited from earlier work
substance,measurement,setting,value
Gentamicin,minimum inhibitory concentration (MIC) of antibiotic against HG-23,[1],8 µg/mL
same,EFSA specified safety value (Lactobacillus plantarum),Lactobacillus plantarum,16

# Source: patent US20220372433A1 (priority 2021, published 2022)
